In patent US10350315B2, “Quinoline-3-carboxamide compounds and their use in diagnosis” (Westfaelische Wihelms-Universitaet Muenster, priority 2014, dated 2019):

Target: T1, S100A9 (Mus musculus, UniProt P31725)
T1 construct: from tissue; host or cells: living mice (inflamed ear, joints) and explanted mouse heart, aorta and lungs
T1 sequence (P31725 2-113 limits assumed): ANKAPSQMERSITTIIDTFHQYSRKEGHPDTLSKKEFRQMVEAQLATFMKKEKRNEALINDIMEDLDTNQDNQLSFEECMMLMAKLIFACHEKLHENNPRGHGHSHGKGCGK
Test: Irritant contact dermatitis (ICD) mouse model, fluorescence reflectance imaging (FRI)
Type: in vivo, mice
Details: FRI 3 h after tracer application
Description: FIG. 6: Accumulation of Cy5.5-CES271 in a mouse model of contact dermatitis (ICD). (A) FRI images showing accumulation of a quinoline-3-carboxamide compound covalently linked to a label (Cy5.5-CES271) in a mouse model of contact dermatitis of the left ear in WT (left) and S100A9 deficient (right) mice. (B) FRI images and S100A9 staining showing accumulation of a quinoline-3-carboxamide compound covalently linked to a label (Cy5.5-CES271) in a mouse model of contact dermatitis.
FIG. 21: FRI images of Cy5.5-CES271 and Cy7-CES271 in a mouse model of contact dermatitis (ICD). (A) Representative Fluorescence Reflectance images of a Cy7-CES271 and Cy5.5-aS100A9 coinjected animal.
In vivo fluorescence reflectance imaging was performed with an IVIS Spectrum small-animal imaging system (Xenogen). Images were acquired and analyzed using Living Image 4.X software (Xenogen). […] Fluorescence emission was measured by Fluorescence emission radiance per incident excitation irradiance (p/sec/cm2/sr/μW/cm2).
ICD was induced by the application of 20 μl 1% croton oil in olive oil-acetone (1:4) to the ventral surface of the left ear of mice for 24 h (n=5 per group), whereas the right ear served as a control. […] In the Cy7 channel the quantum yield is much lower compared to the Cy5.5 channel, which means that the recorded signal with Cy5.5-CES271 is higher than compared to […] (right image; FIG. 21). […]

3-ethyl-2((1E,3E,5E)-5-(3-(1-(5-ethyl-4-hydroxy-1-methyl-2-oxo-1,2-dihydroquinolin-3-yl)-1,15-dioxo-2-phenyl-5,8,11-trioxa-2,14-diazanonadecan-19-yl)-1,1-dimethyl-6,8-disulfonato-1H-benzo[e]indol-2(3H)-ylidene)penta-1,3-dien-1-yl)-1,1-dimethyl-1H-benzo[e]indol-3-ium-6,8-disulfonate [Cy5.5-CES271]
Accumulation in the inflamed ear (S100A9−/− deficient mice): not observed
Accumulation in the inflamed ear (WT mice, croton oil on left ear): significant accumulation
